Broadly, the melting point is the temperature, or range, at which the solid turns liquid. By inhibition is commonly meant how much of the control response was suppressed.

Consider 30 compounds from publication PMC8961538, “N-Acylated and N-Alkylated 2-Aminobenzothiazoles Are Novel Agents That Suppress the Generation of Prostaglandin E2” (Biomolecules, 2022).

Series [1] concerns PGE2 generation in rat mesangial cells. The series is described as follows: Suppression of IL-1β/forskolin-stimulated PGE2 generation in rat renal mesangial cells. Type of series: cell-based. The settings on record: for inhibition at 3 µM / IC50: Rattus norvegicus, Mesangial cell; for IC50: IL-1β plus forskolin, read-out: EC50 (μM), inhibition of PGE2 generation. The procedure: Rat renal mesangial cells (clone MZ B1), isolated and characterized as previously described, were cultivated in RPMI 1640 medium supplemented with 10% fetal bovine serum; 10 mM 4-(2-hydroxyethyl)-1-piperazineethanesulfonic acid (HEPES), pH 7.4; 6 µg/mL of bovine insulin; 5 µg/mL of transferrin; 5 nM sodium selenite; 100 units/mL of penicillin; and 100 µg/mL of streptomycin. The cells were incubated for 4 h in Dulbecco’s modified Eagle’s medium (DMEM) containing 10 mM HEPES, pH 7.4, and 0.1 mg/mL of fatty acid-free bovine serum albumin (BSA), prior to stimulation.
Confluent mesangial cells in 24-well plates were pretreated for 20 min with varying concentrations of inhibitors and then stimulated for 24 h in a total volume of 400 µL of DMEM containing 0.1 mg/mL of BSA, in the absence or presence of 1 nM interleukin 1β (IL-1) plus 5 μM forskolin (Fk). Thereafter, the supernatants were collected and centrifuged for 5 min at 1000× g. The PGE2 in the supernatant was quantified using an enzyme-linked immunoassay (Enzo Life Sciences, Lörrach, Germany) following the manufacturer’s recommendations.
Statistical analysis of the data was performed using one-way analysis of variance (ANOVA) followed by a Bonferroni’s post hoc test for multiple comparisons (GraphPad Prism 8.4.3., San Diego, CA, USA). The half maximal effective concentrations (EC50) of the inhibitors were calculated using the same software.

Setting [2] is: 24 h, 3 μM, 1 nM IL-1β plus 5 μM forskolin.

`O=C(CCCc1ccc2ccccc2c1)Nc1nc2ccccc2s1` [Compound 5a, N-(Benzo[d]Thiazol-2-yl)-4-(Naphthalen-2-yl)Butanamide] gave a melting point of 53 to 55 °C. For the same compound, the inhibition at 3 µM in series [1] (setting [2]) worked out at 50%.
As to `O=C(CCc1ccc2ccccc2c1)Nc1nc2ccccc2o1` [Compound 5c, N-(Benzo[d]Oxazol-2-yl)-3-(Naphthalen-2-yl)Propanamide], the melting point lay in the range of 49 to 51 °C. The inhibition at 3 µM in series [1] (setting [2]) is 49%.
Turning to `O=C(CCCc1ccc2ccccc2c1)Nc1nc2ccccc2o1` [Compound 5d, N-(Benzo[d]Oxazol-2-yl)-4-(Naphthalen-2-yl)Butanamide], the melting point was in the range of 52 to 55 °C. Moreover, in series [1] (setting [2]), the inhibition at 3 µM is 73%.
For the compound `O=C(CCc1ccc2ccccc2c1)Nc1nc2ccccc2[nH]1` [Compound 5e, N-(1H-Benzo[d]Imidazol-2-yl)-3-(Naphthalen-2-yl)Propanamide], the melting point lay in the range of 47 to 49 °C. The inhibition at 3 µM in series [1] (setting [2]) is 29%.
The compound `O=C(CCCc1ccc2ccccc2c1)Nc1nc2ccccc2[nH]1` [Compound 5f, N-(1H-Benzo[d]Imidazol-2-yl)-4-(Naphthalen-2-yl)Butanamide] registered a melting point of 56 to 58 °C. Besides, the inhibition at 3 µM in series [1] (setting [2]) was 66%.
`O=C(COc1ccc2ccccc2c1)Nc1nc2ccccc2s1` [Compound 7, N-(Benzo[d]Thiazol-2-yl)-2-(Naphthalen-2-yloxy)Acetamide]: the melting point was 153 to 155 °C. Moreover, the inhibition at 3 µM in series [1] (setting [2]) came to 41%.
As to `O=C(/C=C/c1ccc2ccccc2c1)Nc1nc2ccccc2s1` [Compound 9a, (E)-N-(Benzo[d]Thiazol-2-yl)-3-(Naphthalen-2-yl)Acrylamide], the melting point fell in the range of 228 to 230 °C. In addition, the inhibition at 3 µM in series [1] (setting [2]) amounted to 28%.
The matching figures for `COc1ccc(/C=C/C(=O)Nc2nc3ccccc3s2)cc1` [Compound 9b, (E)-N-(Benzo[d]Thiazol-2-yl)-3-(4-Methoxyphenyl)Acrylamide]: 252 to 254 °C and 25%.
`COc1ccc(CCC(=O)Nc2nc3ccccc3s2)cc1` [Compound 11, N-(Benzo[d]Thiazol-2-yl)-3-(4-Methoxyphenyl)Propanamide] came in with a melting point of 172 to 174 °C. For the same compound, in series [1] (setting [2]), the inhibition at 3 µM is greater than 80%. Besides, the IC50 in series [1] (0.1 to 3 µM, 24 h) was 0.916 µM.
`O=C(NCCCc1ccc2ccccc2c1)c1nc2ccccc2s1` [Compound 14, N-(3-(Naphthalen-2-yl)Propyl)Benzo[d]Thiazole-2-Carboxamide] registered a melting point of 48 to 50 °C. The inhibition at 3 µM in series [1] (setting [2]) was 64%.
With `COc1ccc(COC(=O)Nc2nc3ccccc3s2)cc1` [Compound 16a, 4-Methoxybenzyl Benzo[d]Thiazol-2-ylcarbamate], the melting point lay within 141 to 143 °C. The inhibition at 3 µM in series [1] (setting [2]) amounted to 15%.
`O=C(Nc1nc2ccccc2s1)OCc1ccc2ccccc2c1` [Compound 16b, Naphthalen-2-ylmethyl Benzo[d]Thiazol-2-ylcarbamate] showed a melting point of 209 to 211 °C. Also, the inhibition at 3 µM in series [1] (setting [2]) worked out at 39%.
As to `COC(CCc1ccc2ccccc2c1)Nc1nc2ccccc2s1` (centres unmarked) [Compound 18a, N-(1-Methoxy-3-(Naphthalen-2-yl)Propyl)Benzo[d]Thiazol-2-Amine], the inhibition at 3 µM in series [1] (setting [2]) was found to be 46%.
Turning to `COC(CCc1ccccc1)Nc1nc2ccccc2s1` (centres unmarked) [Compound 18b, N-(1-Methoxy-3-Phenylpropyl)Benzo[d]Thiazol-2-Amine], the inhibition at 3 µM in series [1] (setting [2]) came out at 0%.
As to `COc1ccc(CCC(Nc2nc3ccccc3s2)OC)cc1` (centres unmarked) [Compound 18c, N-(1-Methoxy-3-(4-Methoxyphenyl)Propyl)Benzo[d]Thiazol-2-Amine], in series [1] (setting [2]), the inhibition at 3 µM came out at 0%.
On to `COC(CCc1ccc2ccccc2c1)Nc1nc2ccc(OC(F)(F)F)cc2s1` (centres unmarked) [Compound 18g, N-(1-Methoxy-3-(Naphthalen-2-yl)Propyl)-6-(Trifluoromethoxy)Benzo[d]Thiazol-2-Amine], for which the melting point lay in the range of 78 to 80 °C.
Still for that read-out and setting: under `COC(CCc1cccc2ccccc12)Nc1nc2ccc(OC(F)(F)F)cc2s1` (centres unmarked) [Compound 18h, N-(1-Methoxy-3-(Naphthalen-1-yl)Propyl)-6-(Trifluoromethoxy)Benzo[d]Thiazol-2-Amine] stands 100 to 102 °C.
In the case of `c1ccc(CCCNc2nc3ccccc3s2)cc1` [Compound 19b, N-(3-Phenylpropyl)Benzo[d]Thiazol-2-Amine], the melting point is 99 to 102 °C. For the same compound, the inhibition at 3 µM in series [1] (setting [2]) was greater than 80%. In addition, the IC50 in series [1] (0.1 to 3 µM, 24 h) worked out at 0.177 µM.
For `COc1ccc(CCCNc2nc3ccccc3s2)cc1` [Compound 19c, N-(3-(4-Methoxyphenyl)Propyl)Benzo[d]Thiazol-2-Amine], the melting point fell in the range of 104 to 106 °C. Further, the inhibition at 3 µM in series [1] (setting [2]) came out at 62%.
Regarding `c1ccc2c(CCCNc3nc4ccccc4s3)cccc2c1` [Compound 19d, N-(3-(Naphthalen-1-yl)Propyl)Benzo[d]Thiazol-2-Amine], the melting point was in the range of 134 to 137 °C. The inhibition at 3 µM in series [1] (setting [2]) is greater than 80%. In series [1] (0.1 to 3 µM, 24 h), the IC50 turned out to be 0.399 µM.
As to `c1ccc2c(CCCNc3nccs3)cccc2c1` [Compound 19e, N-(3-(Naphthalen-1-yl)Propyl)Thiazol-2-Amine], the melting point is 94 to 97 °C. Moreover, in series [1] (0.1 to 3 µM, low concentrations enhanced PGE2, 1 µM and 3 µM reduced it), the “Concentration dependence of effect on PGE2 generation” value is recorded as “biphasic effect”. Also, the inhibition at 3 µM in series [1] (setting [2]) was greater than 80%.
In turn, `c1ccc(CCCNc2nccs2)cc1` [Compound 19f, N-(3-Phenylpropyl)Thiazol-2-Amine] returned a melting point of 83 to 84 °C. For the same compound, the inhibition at 3 µM in series [1] (setting [2]) worked out at 20%.
`FC(F)(F)Oc1ccc2nc(NCCCc3ccc4ccccc4c3)sc2c1` [Compound 19g, N-(3-(Naphthalen-2-yl)Propyl)-6-(Trifluoromethoxy)Benzo[d]Thiazol-2-Amine] came in with a melting point of 150 to 152 °C. For the same compound, in series [1] (3 μM, 1 nM IL-1β plus 5 μM forskolin, 24 h, listed as 19), the “% Inhibition (at 3 μM) of PGE2 generation” value was “inactive”. In addition, in series [1] (setting [2]), the inhibition at 3 µM came out at 0%.
`FC(F)(F)Oc1ccc2nc(NCCCc3cccc4ccccc34)sc2c1` [Compound 19h, N-(3-(Naphthalen-1-yl)Propyl)-6-(Trifluoromethoxy)Benzo[d]Thiazol-2-Amine] showed a melting point of 115 to 116 °C. Besides, the inhibition at 3 µM in series [1] (setting [2]) is 0%.
`c1ccc2cc(CCCNc3nc4ccccc4o3)ccc2c1` [Compound 23a, N-(3-(Naphthalen-2-yl)Propyl)Benzo[d]Oxazol-2-Amine] had a melting point of 128 to 130 °C. Moreover, the inhibition at 3 µM in series [1] (setting [2]) is greater than 80%. Besides, the IC50 in series [1] (0.1 to 3 µM, 24 h) was found to be 0.336 µM.
As for `COc1ccc(CCCNc2nc3ccccc3o2)cc1` [Compound 23b, N-(3-(4-Methoxyphenyl)Propyl)Benzo[d]Oxazol-2-Amine], the melting point fell in the range of 85 to 87 °C. Moreover, in series [1] (setting [2]), the inhibition at 3 µM is 79%.
`c1ccc2cc(OCCNc3nc4ccccc4o3)ccc2c1` [Compound 23c, N-(2-(Naphthalen-2-yloxy)Ethyl)Benzo[d]Oxazol-2-Amine] gave a melting point of 152 to 153 °C. In series [1] (setting [2]), the inhibition at 3 µM is greater than 80%. The IC50 in series [1] (0.1 to 3 µM, 24 h) amounted to 0.894 µM.
With `c1ccc2c(OCCNc3nc4ccccc4o3)cccc2c1` [Compound 23d, N-(2-(Naphthalen-1-yloxy)Ethyl)Benzo[d]Oxazol-2-Amine], the melting point was in the range of 164 to 166 °C. The inhibition at 3 µM in series [1] (setting [2]) amounted to 45%.
`c1ccc2cc(OCCNc3nc4ccccc4s3)ccc2c1` [Compound 25a, N-(2-(Naphthalen-2-yloxy)Ethyl)Benzo[d]Thiazol-2-Amine]: the melting point fell in the range of 170 to 172 °C. The inhibition at 3 µM in series [1] (setting [2]) came to 63%.
The compound `c1ccc2c(OCCNc3nc4ccccc4s3)cccc2c1` [Compound 25b, N-(2-(Naphthalen-1-yloxy)Ethyl)Benzo[d]Thiazol-2-Amine] registered a melting point of 170 to 173 °C. Also, the inhibition at 3 µM in series [1] (setting [2]) stood at 57%.
